# Experiments:
# [1] = Plasma pharmacokinetics of paclitaxel, pazopanib and lapatinib in cycle 1; assay type: in vivo, human; conditions: for AUC(0-t) / Cmax / half-life / AUC(0-inf): human, plasma; for AUC(0-t): Lapatinib AUC(0–24)
# CYP2C8 = assay type: in vivo, human; conditions: increase in paclitaxel AUC and Cmax less than two-fold in the presence of pazopanib and lapatinib
# [2] = pazopanib and lapatinib combination, daily; ref de Jonge et al, 2013; cited from earlier work
# CYP3A4 = assay type: in vivo, human; conditions: increase in paclitaxel AUC and Cmax less than two-fold in the presence of pazopanib and lapatinib
# [3] = pazopanib in combination with paclitaxel; ref Tan et al, 2010; cited from earlier work
# [4] = day 15 of cycle 1, paclitaxel 50 mg m^−2, pazopanib 400 mg, lapatinib 1000 mg, n=6, geometric mean (95% confidence interval)
# [5] = day 15 of cycle 1, paclitaxel 50 mg m^−2, pazopanib 800 mg, lapatinib 1000 mg, n=3, median (range)
# [6] = day 15 of cycle 1, paclitaxel 80 mg m^−2, pazopanib 400 mg, lapatinib 1000 mg, n=9, geometric mean (95% confidence interval)
# [7] = day 15 of cycle 1, paclitaxel 80 mg m^−2, pazopanib 800 mg, lapatinib 1000 mg, n=1, individual value
# [8] = patients receiving pazopanib 400 mg, lapatinib 1000 mg
compound,measurement,setting,value
"5-((4-((2,3-dimethyl-2H-indazol-6-yl)methylamino]-2-pyrimidinyl)amino)-2-methyl-benzenesulfonamide [pazopanib]",Pazopanib AUC(0–24),[1]; [4],"633 (279, 1436) μg*hr ml^−1"
same,Pazopanib Cmax,[1]; [4],"31.7 (14.6, 68.8) μg ml^−1"
same,Pazopanib AUC(0–24),[1]; [5],"960 (736, 1620) μg*hr ml^−1"
same,Pazopanib Cmax,[1]; [5],"48.9 (40.7, 80.9) μg ml^−1"
same,Pazopanib AUC(0–24),[1]; [6],"646 (432, 967) μg*hr ml^−1"
same,Pazopanib Cmax,[1]; [6],"32 (21.9, 46.9) μg ml^−1"
same,Pazopanib AUC(0–24),[1]; [7],1027 µg·h/mL
same,Pazopanib Cmax,[1]; [7],57.4 µg/mL
same,Change in mean AUC0–24 of pazopanib with a two-fold increase in pazopanib dose,[1]; pazopanib 400–800 mg per day,less than two-fold increase
same,Change in mean Cmax of pazopanib with a two-fold increase in pazopanib dose,[1]; pazopanib 400–800 mg per day,less than two-fold increase
same,Inhibition of CYP2C8 (classification),CYP2C8,weak inhibitors
same,Recommended phase II dosing,[2],800 mg
CS(=O)(=O)CCNCc1ccc(-c2ccc3ncnc(Nc4ccc(OCc5cccc(F)c5)c(Cl)c4)c3c2)o1 [lapatinib],Lapatinib Cmax,[1]; [6],"1.95 (1.13, 3.37) μg ml^−1"
same,AUC(0-t),"[1]; oral, day 15 of cycle 1, paclitaxel 50 mg m^−2, pazopanib 400 mg, lapatinib 1000 mg, n=6, geometric mean (95% confidence interval)",20 µg·h/mL
same,AUC(0-t),"[1]; oral, day 15 of cycle 1, paclitaxel 50 mg m^−2, pazopanib 800 mg, lapatinib 1000 mg, n=3, median (range)",51.4 µg·h/mL
same,AUC(0-t),"[1]; oral, day 15 of cycle 1, paclitaxel 80 mg m^−2, pazopanib 400 mg, lapatinib 1000 mg, n=9, geometric mean (95% confidence interval)",27.1 µg·h/mL
same,AUC(0-t),"[1]; oral, day 15 of cycle 1, paclitaxel 80 mg m^−2, pazopanib 800 mg, lapatinib 1000 mg, n=1, individual value",11.6 µg·h/mL
same,Cmax,"[1]; oral, Lapatinib Cmax, day 15 of cycle 1, paclitaxel 50 mg m^−2, pazopanib 400 mg, lapatinib 1000 mg, n=6, geometric mean (95% confidence interval)",1270 ng/mL
same,Increase in AUC0–24 of lapatinib on increasing paclitaxel from 50 to 80 mg m^−2,[1]; [8],1.4 fold
same,Increase in Cmax of lapatinib on increasing paclitaxel from 50 to 80 mg m^−2,[1]; [8],1.5 fold
same,Inhibition of CYP3A4 (classification),CYP3A4,weak inhibitors
same,Inhibition of CYP2C8 (classification),CYP2C8,weak inhibitors
same,Recommended phase II dosing,[2],1500 mg
CC(=O)O[C@H]1C(=O)[C@@]2(C)[C@H]([C@H](OC(=O)c3ccccc3)[C@]3(O)C[C@H](OC(=O)[C@H](O)[C@@H](NC(=O)c4ccccc4)c4ccccc4)C(C)=C1C3(C)C)[C@]1(OC(C)=O)CO[C@@H]1C[C@@H]2O [paclitaxel],Paclitaxel CL,"[1]; day 15, 50 mg m^−2 paclitaxel+400 mg pazopanib+1000 mg lapatinib, n=4, geometric mean (95% confidence interval)","16.3 (14.8, 17.9) l h^−1 m^−2"
same,Paclitaxel CL,"[1]; day 15, 50 mg m^−2 paclitaxel+800 mg pazopanib+1000 mg lapatinib, n=3, median (range)","16.3 (14.9, 20.3) l h^−1 m^−2"
same,Paclitaxel CL,"[1]; day 15, 80 mg m^−2 paclitaxel+400 mg pazopanib+1000 mg lapatinib (MTR), n=9, geometric mean (95% confidence interval)","15.3 (13.2, 17.8) l h^−1 m^−2"
same,Paclitaxel CL,"[1]; day 15, 80 mg m^−2 paclitaxel+800 mg pazopanib+1000 mg lapatinib, n=1, individual value",18.3 l h^−1 m^−2
same,half-life,[1]; intravenous,14.8 h
same,AUC(0-inf),"[1]; intravenous, 50 mg m^−2",2.15 µg·h/mL
same,Cmax,"[1]; intravenous, 50 mg m^−2",1440 ng/mL
same,half-life,"[1]; intravenous, 50 mg m^−2",11.7 h
same,Cmax,"[1]; intravenous, 50 mg m^−2, Paclitaxel Cmax, day 1 (pazopanib and lapatinib withheld), 50 mg m^−2 paclitaxel+800 mg pazopanib+1000 mg lapatinib, n=3, median (range)",1270 ng/mL
same,AUC(0-inf),"[1]; intravenous, 80 mg m^−2",3.82 µg·h/mL
same,Cmax,"[1]; intravenous, 80 mg m^−2",2290 ng/mL
same,Cmax,"[1]; intravenous, 80 mg m^−2, Paclitaxel Cmax, day 1 (pazopanib and lapatinib withheld), 80 mg m^−2 paclitaxel+800 mg pazopanib+1000 mg lapatinib, n=3, median (range)",3320 ng/mL
same,AUC(0-inf),"[1]; intravenous, Paclitaxel AUC(0-∞), day 15, 50 mg m^−2 paclitaxel+800 mg pazopanib+1000 mg lapatinib, n=3, median (range)",3.06 µg·h/mL
same,AUC(0-inf),"[1]; intravenous, Paclitaxel AUC(0-∞), day 15, 80 mg m^−2 paclitaxel+400 mg pazopanib+1000 mg lapatinib (MTR), n=9, geometric mean (95% confidence interval)",5.23 µg·h/mL
same,AUC(0-inf),"[1]; intravenous, Paclitaxel AUC(0–∞), day 15, 50 mg m^−2 paclitaxel+400 mg pazopanib+1000 mg lapatinib, n=4, geometric mean (95% confidence interval)",3.07 µg·h/mL
same,AUC(0-inf),"[1]; intravenous, Paclitaxel AUC(0–∞), day 15, 80 mg m^−2 paclitaxel+800 mg pazopanib+1000 mg lapatinib, n=1, individual value",4.37 µg·h/mL
same,Cmax,"[1]; intravenous, Paclitaxel Cmax, day 15, 50 mg m^−2 paclitaxel+400 mg pazopanib+1000 mg lapatinib, n=5, geometric mean (95% confidence interval)",2330 ng/mL
same,Cmax,"[1]; intravenous, Paclitaxel Cmax, day 15, 50 mg m^−2 paclitaxel+800 mg pazopanib+1000 mg lapatinib, n=3, median (range)",1720 ng/mL
same,Cmax,"[1]; intravenous, Paclitaxel Cmax, day 15, 80 mg m^−2 paclitaxel+800 mg pazopanib+1000 mg lapatinib, n=1, individual value",2710 ng/mL
same,Increase in Cmax of paclitaxel relative to paclitaxel alone,[3],36%
same,Increase in geometric mean AUC of paclitaxel relative to paclitaxel alone,[3],26%
